Measurements as given in US9676754B2, “Triazolone compounds and uses thereof” (Inception 2, Inc., priority 2012, dated 2017).

Assays:
[1] = target: T1, Thyroid Receptor β (Homo sapiens, UniProt P10828); assay: Target selectivity counterscreen, Thyroid Receptor β reporter assay; format: cell-based; conditions: receptor agonist at ~EC80
T1 construct: host or cells: engineered reporter cells of the kit
T1 sequence (P10828 1-461): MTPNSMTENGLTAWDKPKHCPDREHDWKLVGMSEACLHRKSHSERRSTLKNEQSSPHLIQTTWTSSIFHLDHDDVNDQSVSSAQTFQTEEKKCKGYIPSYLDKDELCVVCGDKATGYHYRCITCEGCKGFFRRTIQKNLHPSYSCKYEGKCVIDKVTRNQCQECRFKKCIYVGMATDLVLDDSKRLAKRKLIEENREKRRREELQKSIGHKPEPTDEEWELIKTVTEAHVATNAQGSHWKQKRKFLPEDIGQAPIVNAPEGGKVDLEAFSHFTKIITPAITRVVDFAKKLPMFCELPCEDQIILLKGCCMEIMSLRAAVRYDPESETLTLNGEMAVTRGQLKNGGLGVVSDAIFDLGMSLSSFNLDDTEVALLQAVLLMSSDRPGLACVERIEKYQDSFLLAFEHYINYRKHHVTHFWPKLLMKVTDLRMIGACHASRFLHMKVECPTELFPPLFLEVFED
Method: (§1) Target Selectivity Assays
(§2) To determine species selectivity, a Mouse PPARα Reporter Assay System was used (Indigo Biosciences, Cat. #M00111). Activity of test compounds to antagonize or agonize other isoforms of human PPAR, for example β/δ and γ, were assessed using the corresponding kits from Indigo Biosciences (Cat. #IB00121 and #IB00101, respectively). In addition to PPAR activity, compounds were also screened for activity against other nuclear hormone receptors including Estrogen Receptor β, Glucocorticoid Receptor and Thyroid Receptor β using commercially available kits (Indigo Biosciences, Cat. #IB00411, IB00201 and IB01101, respectively). Each assay system from Indigo Biosciences uses technology analogous to the human PPARα kit, with the variance being that the cells used for each assay were engineered to over-express the receptor of interest. In addition, the appropriate receptor agonist (included with each kit) was used at ˜EC80 for assays in which antagonist potency was being assessed.

[2] = target: T2, PPAR gamma (Homo sapiens, UniProt P37231); assay: Target selectivity counterscreen, PPAR γ reporter assay; format: cell-based; conditions: receptor agonist at ~EC80
T2 construct: host or cells: engineered reporter cells of the kit (analogous to the human PPARα kit)
T2 sequence (P37231 1-505): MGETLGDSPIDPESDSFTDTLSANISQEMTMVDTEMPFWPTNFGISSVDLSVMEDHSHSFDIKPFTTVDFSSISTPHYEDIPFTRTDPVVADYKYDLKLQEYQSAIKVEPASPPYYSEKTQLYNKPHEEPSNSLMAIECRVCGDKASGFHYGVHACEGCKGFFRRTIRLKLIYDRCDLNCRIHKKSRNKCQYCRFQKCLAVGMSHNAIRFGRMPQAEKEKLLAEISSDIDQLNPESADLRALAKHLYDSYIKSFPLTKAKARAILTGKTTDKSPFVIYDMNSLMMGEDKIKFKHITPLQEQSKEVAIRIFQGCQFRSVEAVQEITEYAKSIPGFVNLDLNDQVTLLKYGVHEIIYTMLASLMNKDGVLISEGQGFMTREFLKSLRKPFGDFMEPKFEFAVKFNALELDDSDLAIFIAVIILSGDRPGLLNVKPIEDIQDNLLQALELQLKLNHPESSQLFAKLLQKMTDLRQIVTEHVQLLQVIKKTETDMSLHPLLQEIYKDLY
Method: as §1, §2

CCOc1ccc(-c2cccc(CCCc3nn(Cc4ccc(C(C)(C)C)cc4)c(=O)n3CC)c2)cc1CC(=O)O [Example 6, 2-(3′-(3-(1-(4-(tert-Butyl)benzyl)-4-ethyl-5-oxo-4,5-dihydro-1H-1,2,4-triazol-3-yl)propyl)-4-ethoxy-[1,1′-biphenyl]-3-yl)acetic acid]
IC50 [1]: 30.8 µM | IC50 [2]: 39.8 µM
